Laboratory results reported in publication PMC9696068 (2022).

Tested on: AT11 on 2[G4]-(N3)127/(AT11)34/(Cy5)1 (aptadendrimer) (DNA, G4) TGGTGGTGGTTGTTGTGGTGGTGGTGGT
Experiment: steady-state and time-resolved fluorescence, fluorescence anisotropy
Conditions: K+ 65 mM KCl plus potassium phosphate; 20 mM phosphate pH 6.9, room temperature; 0.5 µM C8, aptadendrimer titrated; dendrimer core may contribute

binding: yes
SMILES: CN(C)c1ccc2cc3ccc(N(C)C)cc3[n+](CCCCCCCCNC(=O)c3ccc(I)cc3)c2c1
